Paper PMC10400593, “Molecular insights into Spindlin1-HBx interplay and its impact on HBV transcription from cccDNA minichromosome” (Nature Communications, 2023)
Where “and” joins values, the source holds several entries; their conditions need not be identical. Equal values may be shown once. Entries after “also recorded” stand apart in the source; their conditions may differ. Read-outs that look alike come from different tables or passages of the source. Where no end group is shown, it is not given here.

Legend:
[1] = system: HBeAg; settings: ectopic expression in Spindlin1 knockdown cells
Description: (§1) Mutations in full-length Spindlin1 were generated by site-directed mutagenesis and confirmed by DNA sequencing. Plasmid DNA and siRNA transfections were performed using Lipofectamine 3000 reagent (Invitrogen) and Lipofectamine RNAiMAX (Invitrogen) according to the manufacturer’s protocol, respectively.
For infections, cells were incubated with viral supernatants in the presence of 10 µg/ml polybrene.
For siRNA knockdown experiments of HepG2-NTCP cells, the siRNAs (sequences are listed in the Supplementary Table 4) were transfected at 3dpi, and incubated with cells for 24 h. Then the cells were maintained in PMM with 2% FBS with regular medium changing every other day. For cccDNA formation experiment, the siRNAs were transfected 48 h before infection and incubated with cells for 24 h. Then the cells were cultured with PMM medium for another […]. The cells were then infected with HBV at 800GEQ in the presence of 5% PEG8000 for 24 h at 37 °C.
HBeAg levels of HBV infected cells were measured using ELISA kits (Wantai Pharm Inc). Supernatants from HBV infected cells were harvested at each time point examined in the various assays and were diluted 4-fold with DMEM before ELISA.

[2] = system: HBx; settings: Huh7 cells, 48 h after co-transfection, WB
Description: as §1

[3] = target: Spindlin1_50-262 & HBx2-21 (Homo sapiens, UniProt Q9Y657); settings: ITC; for N / ΔH: mean ± SE; for K (association constant): 25 °C, pH 7.5, mean ± SE
Description: Cells were harvested and lysed in lysis buffer: 0.2 M NaCl, 20 mM Tris, pH 8.0 containing 1 mM fresh PMSF. […] The tag-free protein was collected for an anion-exchange chromatography over a HiTrap Q HP column and Superdex G75 columns (GE Healthcare).
(§2) Protein concentration was determined by absorbance spectroscopy at 280 nm. Peptide concentrations were determined by weighing in large quantities. Each ITC titration consisted of 17 successive injections with 0.4 μl for the first and 2.4 μl for the rest. The intervals between injections were 180 s, and the stirring speed was 750 rpm. […] Acquired calorimetric titration data were fitted at 95% confidence and analyzed using Origin 7.0 (GE Healthcare) using the One Set of Binding Sites fitting model. Data represent the mean ± SE. Detailed thermodynamic parameters of each titration are summarized in the Supplementary Table 2.

[4] = target: T1, human Spindlin1_50–262 (Homo sapiens, UniProt Q9Y657); format: binding; parameters: Human Spindlin1_50–262 was cloned into pGEX-6P-1 vector containing an N-terminal GST tag; GST (N, cleaved yes); made in house; host or cells: E. coli BL21(DE3); settings: 25 °C; for N: ITC stoichiometry, free wild-type Spindlin1_50–262; for N / ΔH / K (association constant): mean ± SE; for ΔS / ΔH / K (association constant): ITC, pH 7.5, free wild-type Spindlin1_50–262; for K (association constant): One Set of Binding Sites fit
Description: Cells were harvested and lysed in lysis buffer: 0.2 M NaCl, 20 mM Tris, pH 8.0 containing 1 mM fresh PMSF. After centrifugation, the GST-tagged Spindlin1_50–262 was purified by a GST affinity column and then the GST tag was cleaved on-column by a home-made P3C protease overnight. The tag-free protein was collected for an anion-exchange chromatography over a HiTrap Q HP column and Superdex G75 columns (GE Healthcare). The Spindlin1_50–262 protein was concentrated to 25 mg/ml in 0.15 M NaCl, 20 mM Tris, pH 8.0, aliquoted and stored at −80 °C for future use. All Spindlin1_50–262 mutants were generated by the QuikChange site-directed mutagenesis strategy and purified using the same procedure as described above.
as §2, with “Calorimetric experiments were conducted at 25 °C with a MicroCal PEAQ-ITC instrument (Malvern Instruments) as previously described. The Spindlin1_50–262 samples were extensively dialyzed against the buffer containing 20 mM HepesNa (pH 7.5) and 150 mM NaCl. Protein” for “Protein”

[5] = target: T1, human Spindlin1_50–262; test: ITC
[6] = system: HBV RNA; test: Rescue of HBV transcription/expression in Spindlin1 knockdown HepG2-NTCP cells; format: cell-based; settings: ectopic expression in Spindlin1 knockdown cells
Description: Cells were harvested with TRIzol™ Reagent (Invitrogen, Carlsbad, CA). The RNA was extracted and precipitated with equal volumes of isopropanol. The RNA pellet was washed with 75% ethanol and dissolved in DEPC-treated H2O. The RNA solution with 1xRNA loading buffer was incubated at 65 °C heat block for 5 min and put on ice for 5 min. Then the RNA sample was subjected to 1.2% agarose gel electrophoresis (with 1xMOPS buffer and 5% formaldehyde solution) and transferred onto Amersham Hybond-N+ membrane (GE Healthcare). After UV crosslinking, the RNA was detected with DIG-labeled full-length HBV genome and DIG-labeled GAPDH probe (DIG-high prime DNA-labeling and detection starter kit II, Roche, cat. No. 11585614910).

[7] = target: T2, Human Spindlin1 50-262 (human, UniProt Q9Y657 50-262); test: ITC; settings: both partners purified
T2 construct: also called SPIN1; not shown: GST, N-terminal, cleaved

[8] = target: T2, Human Spindlin1 50-262; test: ITC; settings: both partners purified; remark: listed apart in the source
[9] = target: T2, Human Spindlin1 50-262; test: ITC; settings: both partners purified; remark: listed apart in the source
[10] = target: T2, Human Spindlin1 50-262; test: ITC; settings: both partners purified; remark: listed apart in the source
[11] = listed as wild-type (WT) Spindlin1

T1 sequence (Q9Y657 50-262): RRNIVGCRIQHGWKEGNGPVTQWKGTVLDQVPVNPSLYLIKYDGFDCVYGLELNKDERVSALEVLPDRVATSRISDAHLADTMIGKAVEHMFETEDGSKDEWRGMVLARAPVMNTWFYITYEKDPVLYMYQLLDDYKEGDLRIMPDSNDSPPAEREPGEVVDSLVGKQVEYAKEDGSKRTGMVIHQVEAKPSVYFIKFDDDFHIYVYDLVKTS
T2 sequence (Q9Y657 50-262): as above
Chain of Spindlin1_50-262 & HBx2-21 (Q9Y657 whole entry, looked up): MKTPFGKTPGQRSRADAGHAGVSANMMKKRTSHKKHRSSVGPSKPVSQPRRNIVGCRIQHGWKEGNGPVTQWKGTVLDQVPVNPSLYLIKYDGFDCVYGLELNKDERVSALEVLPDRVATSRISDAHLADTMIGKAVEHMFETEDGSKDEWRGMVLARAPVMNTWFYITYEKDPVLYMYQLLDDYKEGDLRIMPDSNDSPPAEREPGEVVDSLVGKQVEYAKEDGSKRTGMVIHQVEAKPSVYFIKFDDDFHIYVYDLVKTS

K216S/V218R double mutant was tested, and the “Restoration of HBeAg levels” value [1] was “not the K216S/V218R double mutant that effectively restored”, the “Interaction with HBx (Co-IP)” value [2] was “disrupted Spindlin1-HBx engagement both in vitro and in cellular context” and the “Interaction with HBx (Co-IP)” value ([2]; listed as Spindlin1 K216S/V218R) was “significantly compromised”.

In the case of “Ac-GKGGAKRHRK (me3)VLRDNIQGIT-NH2 [H411-30 K20me3, histone H4 peptide]”, the N [3] is reported as 0.9± 0.010 and 1.0± 0.001, the N [4] is reported as 1.0± 0.016 and the ΔS [4] is reported as -12.3 cal/mol/deg. The ΔH [4] was -12920± 254.2 kal/mol.

Work on HBx_(61–80) peptide yielded a fold weaker binding than HBx (2–21) [5] of 55 fold.

With “HBx_(2–21) peptide (from UniProt Q69607) V15R” the Kd [5] was 14.4 µM.

For HBx2-21 V15R peptide, the stoichiometry N [5] was 1.

“ARTK(m e3)QTAR(me2a)KSTGGKAPRKQL-NH2 [H31-20 K4me3R8me2a, histone H3 peptide]” was tested, and the ΔS [3] was -22.0 cal/mol/deg, the “K (association constant)” value [3] was 4.74e+07 ± 7.62e+06 M⁻¹ and the N [3] was 1.0± 0.003. The ΔH [3] was -17040± 96.9 kal/mol, the N [4] was 1.0± 0.004 and the ΔS [4] was -23.6 cal/mol/deg. The “K (association constant)” value [4] was 3.2e+07 ± 5.15e+06 M⁻¹ and the ΔH [4] was -17280± 115.8 kal/mol.

HBx_(11–30) peptide showed a fold weaker binding than HBx (2–21) [5] of 44 fold.

With “ARTK(m e3)QTARK(me2)STGGKA-NH2 [H31-15 K4me3K9me2, histone H3 peptide]” the ΔS [3] was -12.1 cal/mol/deg, the “K (association constant)” value [3] was 1.74e+08 ± 9.28e+07 M⁻¹ and the N [3] was 1.0± 0.004. It also gave a ΔH [3] of -14860± 139.6 kal/mol, an N [4] of 1.0± 0.002 and a ΔS [4] of -15.3 cal/mol/deg. For the same molecule, the “K (association constant)” value [4] was 4.18e+07 ± 4.82e+06 M⁻¹ and the ΔH [4] was -14960± 61.22 kal/mol.

“HBx_(2–21) peptide (from UniProt Q69607) L18R” was tested, and the Kd [5] was 35.8 µM.

With “AARLCCQLDSSRDVLLLRPL-NH2 [GSHBx, ground squirrel HBx N-terminal motif peptide]” the ΔS [4] was 25.3 cal/mol/deg and the ΔH [4] was -987.3± 23.4 kal/mol.

“wild-type Spindlin1: ectopically expressed wild-type Spindlin1” was tested, and the “Restoration of HBeAg levels” value [1] was “effectively restored the levels of HBV transcription and HBeAg”, the “Restoration of HBeAg levels” value [1, 11] was “restore the levels of HBV transcription and HBeAg” and the “Restoration of HBV transcription/expression” value [6] was “effectively restored the levels of HBV transcription and HBeAg; also recorded: restored HBV expression”. The “Restoration of HBV transcription/expression” value [6, 11] was “restore the levels of HBV transcription and HBeAg”.

In the case of Ac-PARDVLCLRPIGAESRGRPL-NH2 [HBx11-30], the ΔS [4] is reported as 8.2 cal/mol/deg and the ΔH [4] is reported as -3496± 197.8 kal/mol.

“AARLCCQLDPARDVLCLRPV-NH2 [HBx-D2-21, HBx-D N-terminal motif peptide]” was tested, and the ΔS [4] was 18.0 cal/mol/deg and the ΔH [4] was -3096± 42.71 kal/mol.

In the case of “Ac-CSFSSAGPCALRFTSARRME-NH2 [HBx61-80, HBx array peptide]”, the ΔS [4] is reported as -1.7 cal/mol/deg and the ΔH [4] is reported as -6319± 252.7 kal/mol.

“AARLCCQLDSARDVLLLRPF-NH2 [WHx, woodchuck HBx N-terminal motif peptide]” was tested, and the ΔS [4] was 9.96 cal/mol/deg and the ΔH [4] was -4600± 130.4 kal/mol.

W72R was tested, and the “Restoration of HBV transcription/expression” value [6] was “not its H3K4me3 and H3K9me3-binding deficient mutants”.

B1: HBx11-30 peptide (peptide)
peptide: Ac-PARDVLCLRPIGAESRGRPL-NH2
notes: source: synthetic peptide, bought: Scilight Biotechnology LLC
With B1 the Kd [7] was 45.9 µM, the Ka [8] was 22600 M⁻¹ and the “stoichiometry N” value [8] was 1.2.

B2: HBx-D2-21 peptide (peptide)
peptide: AARLCCQLDPARDVLCLRPV-NH2
modifications: cysteine pairing not given here
notes: as for B1
For B2, the Ka [8] was 1.56e+06 M⁻¹, the “stoichiometry N” value [8] was 0.951 and the Kd [9] was 0.7 µM.

B3: HBx61-80 peptide (peptide)
peptide: Ac-CSFSSAGPCALRFTSARRME-NH2
modifications: cysteine pairing not given here
notes: as for B1
For B3, the Kd [7] was 55.5 µM, the Ka [8] was 18200 M⁻¹ and the “stoichiometry N” value [8] was 1.

B4: H3 1-15 K4me3K9me2 peptide (peptide)
peptide: ARTK(me3)QTARK(me2)STGGKA
notes: also called H3K4me3K9me2; source: synthetic peptide, bought: Scilight Biotechnology LLC
B4 showed a Ka [8] of 4.18e+07 M⁻¹ and a Kd [10] of 0.0242 µM.

B5: WHx2-21 peptide (woodchuck HBx) (peptide)
peptide: AARLCCQLDSARDVLLLRPF-NH2
modifications: cysteine pairing not given here
notes: also called FWHx; source: synthetic peptide, bought: Scilight Biotechnology LLC
B5 was tested, and the Ka [8] was 354000 M⁻¹, the “stoichiometry N” value [8] was 0.9 and the Kd [9] was 2.9 µM.

B6: GSHBx2-21 peptide (ground squirrel HBx) (peptide)
peptide: AARLCCQLDSSRDVLLLRPL-NH2
modifications: cysteine pairing not given here
notes: as for B1
In the case of B6, the Ka [8] is reported as 1.83e+06 M⁻¹, the “stoichiometry N” value [8] is reported as 1.1 and the Kd [9] is reported as 0.62 µM.
